Data as given in ChEMBL document CHEMBL3608207, “Synthesis, characterization, evaluation and molecular dynamics studies of 5, 6-diphenyl-1,2,4-triazin-3(2H)-one derivatives bearing 5-substituted 1,3,4-oxadiazole as potential anti-inflammatory and analgesic agents” (Eur J Med Chem, 2015).

Columns and labels:
Rattus norvegicus [1] = assay: Anti-inflammatory activity in rat model of acute inflammation assessed as inhibition of carrageenan-induced paw oedema dosed at equimolar oral dose relative to 10 mg/kg, po indomethacin dosed 1 hr before carrageenan injection and measured 2 hrs after carrageenan injection; format: functional
Rattus norvegicus [2] = assay: Anti-inflammatory activity in rat model of acute inflammation assessed as inhibition of carrageenan-induced paw oedema dosed at equimolar oral dose relative to 10 mg/kg, po indomethacin dosed 1 hr before carrageenan injection and measured 5 hrs after carrageenan injection; format: functional
Rattus norvegicus [3] = assay: Anti-inflammatory activity in rat model of acute inflammation assessed as inhibition of carrageenan-induced paw oedema dosed at equimolar oral dose relative to 10 mg/kg, po indomethacin dosed 1 hr before carrageenan injection and measured 1 hr after carrageenan injection; format: functional
Rattus norvegicus [4] = assay: Anti-inflammatory activity in rat model of acute inflammation assessed as inhibition of carrageenan-induced paw oedema dosed at equimolar oral dose relative to 10 mg/kg, po indomethacin dosed 1 hr before carrageenan injection and measured 5 hrs after carrageenan injection relative to 10 mg/kg, po indomethacin; format: functional
Rattus norvegicus [5] = assay: Toxicity in healthy albino rat assessed as induction of mortality at 500 mg/kg, po measured after 14 days; format: organism-based; conditions: in vivo, 336 h
Rattus norvegicus [6] = assay: Renal toxicity in rat Freund's adjuvant induced arthritis model of chronic inflammation assessed as assessed as creatinine level at equimolar oral dose relative to 10 mg/kg, po indomethacin dosed after 14 days from day of adjuvant injection until day 21 and measured on day 21 (reference value: 0.62 +/- 0.049 mg/dL); format: organism-based; conditions: in vivo, 336 h
Rattus norvegicus [7] = assay: Toxicity in healthy albino rat assessed as induction of sleep up to 500 mg/kg, po; format: organism-based; conditions: in vivo
Rattus norvegicus [8] = assay: Anti-inflammatory activity in rat model of acute inflammation assessed as inhibition of carrageenan-induced paw oedema dosed at equimolar oral dose relative to 10 mg/kg, po indomethacin dosed 1 hr before carrageenan injection and measured 6 hrs after carrageenan injection; format: functional
[9] = In-vitro anti-inflammatory activity assessed as inhibition of denaturation of bovine serum albumin at equimolar dose relative to 10 mg indomethacin; format: functional
Rattus norvegicus [10] = assay: Anti-inflammatory activity in rat Freund's adjuvant induced arthritis model of chronic inflammation assessed as inhibition of right hind paw swelling at equimolar oral dose relative to 10 mg/kg, po indomethacin dosed after 14 days from day of adjuvant injection until day 21 and measured on day 6; format: functional
Rattus norvegicus [11] = assay: (§1) Gastro-intestinal toxicity in rat Freund's adjuvant induced arthritis model of chronic inflammation assessed as histological changes at equimolar oral dose relative to 10 mg/kg, po indomethacin dosed after 14 days from day of adjuvant injection until day 21 and measured on day 21 by hematoxylin and eosin staining based microscopy; format: organism-based; conditions: in vivo, 336 h
Rattus norvegicus [12] = assay: as §1, with “Hepato-toxicity” for “Gastro-intestinal toxicity”; format: organism-based; conditions: in vivo, 336 h
Rattus norvegicus [13] = assay: as §1, with “Renal” for “Gastro-intestinal”; format: organism-based; conditions: in vivo, 336 h

Compound | inhibition (INH) (Rattus norvegicus [1]) [%] | inhibition (INH) (Rattus norvegicus [2]) [%] | inhibition (INH) (Rattus norvegicus [3]) [%] | inhibition (INH) (Rattus norvegicus [4]) [%] | Activity (Rattus norvegicus [5]) | Activity (Rattus norvegicus [6]) [mg/dL] | Activity (Rattus norvegicus [7]) | inhibition (INH) (Rattus norvegicus [8]) [%] | inhibition [9] [%] | inhibition (INH) (Rattus norvegicus [10]) [%] | Activity (Rattus norvegicus [11]) | Activity (Rattus norvegicus [12]) | Activity (Rattus norvegicus [13])
O=c1nc(-c2ccccc2)c(-c2ccccc2)nn1Cc1nnc(-c2ccc([N+](=O)[O-])cc2)o1 | 41.42 | 55.96 | 19.98 | 89.33 | Non-toxic | 0.88 | Non-toxic | 52.27 | 78.4 | 36.13 |  |  | 
O=c1nc(-c2ccccc2)c(-c2ccccc2)nn1Cc1nnc(-c2ccc(O)cc2O)o1 | 44.47 | 59.07 | 24.71 | 94.3 | Non-toxic | 0.72 | Non-toxic | 57.56 | 80.8 | 37.61 | Non-toxic | Non-toxic | Non-toxic
COc1ccc(-c2nnc(Cn3nc(-c4ccccc4)c(-c4ccccc4)nc3=O)o2)cc1 | 38.71 | 55.25 | 18.24 | 88.2 | Non-toxic | 0.91 | Non-toxic | 52.71 | 76.7 | 35.14 |  |  | 
O=c1nc(-c2ccccc2)c(-c2ccccc2)nn1Cc1nnc(-c2ccc(Cl)cc2)o1 | 39.28 | 57.64 | 22.98 | 92.02 | Non-toxic | 0.78 | Non-toxic | 55.47 | 78.2 | 35.28 |  |  | 
Nc1ccc(-c2nnc(Cn3nc(-c4ccccc4)c(-c4ccccc4)nc3=O)o2)cc1 | 41.76 | 58.83 | 24.02 | 93.92 | Non-toxic | 0.86 | Non-toxic | 55.96 | 80.3 | 36.5 | Non-toxic | Non-toxic | Non-toxic
